Measured values as given in publication PMC12071365, “Discovery of Boronic Acids-Based β-Lactamase Inhibitors Through In Situ Click Chemistry” (International Journal of Molecular Sciences, 2025).

Assays:
AmpC [1] = target: T1, AmpC (Escherichia coli, UniProt P00811); experiment: Competitive inhibition assay with nitrocefin, Ki; format: biochemical; parameters: made in house; conditions: AmpC; values in nM
Protocol: (§1) The β-lactamases used in the present study were from a Clinical Biochemistry Laboratory collection (Department of Biotechnological and Applied Clinical Sciences, University of L’Aquila, L’Aquila, Italy). […] The concentration of each enzyme was determined by a Bradford assay.
The plot v0/vi versus [I] yielded a straight line of slope KM/(KM + S) × Ki.
Figure 9 Compounds synthesised and their biological evaluation. AC = Amplification coefficient. […] Light blue indicates the compounds from the AmpC screening.

AmpC [2] = target: T1, AmpC; parameters: made in house; conditions: AmpC 20 mol%; warhead 3 + alkyne cluster; 37 °C, 24 h
Protocol: Following the same conditions used for the multicomponent screening with KPC-2, the in situ click chemistry experiment was performed using AmpC as template.
(§2) Binary and multicomponent KTGS. […] The microtube was shaken at 300 rpm at 37 °C for 24 h. Reactions were transferred into a LC–MS vial and directly injected (10 µL) for liquid chromatography–mass spectrometry (LC–MS). Reactions were analysed with an Ultimate 3000 UHPLC coupled to a Q-exactive hybrid quadrupole-orbitrap mass spectrometer via an HESI-II heated electrospray ionisation source. The chromatographic separation was performed injecting a 10 µL sample volume on a Hypersil Gold C18 100 × 2.1 mm, 1.9 µm column (Thermo Fisher Scientific), kept at 30 °C eluting with 0.3 mL/min flow of ultrapure water (A) and methanol (B), both with 0.1% formic acid as mobile phase. […] A data-dependent mass spectrometric data acquisition strategy was used for full MS/DD-MS2. […] An inclusion list was eventually used to target the MS2 spectra acquisition of preferred ion species. Detection was based on calculated [M+H]^+ and [M−H]^− molecular ions with a 5 ppm accuracy tolerance for their respective ion chromatogram extraction. Peak retention time and area of detected target compounds was used for their detection and semi-quantitative evaluation in between reaction batches.
For controls (buffer and BSA), AmpC/KPC-2 is replaced with no enzyme (buffer volume 95 µL) and BSA (stock 100 µM, final concentration 5 µM, buffer volume 90 µL). Hits were identified in each cluster by mass and retention time and compared with both controls (buffer and BSA) and synthetically prepared triazoles obtained in mixtures.

AmpC [3] = target: T1, AmpC; experiment: Binary in situ click chemistry between 3 and Al-12, with or without SM23; parameters: made in house; conditions: binary 3 + Al-12; AmpC 20 mol%; SM23 1 mol%
Protocol: as §2
For controls (buffer and BSA), AmpC/KPC-2 is replaced with no enzyme (buffer volume 95 µL) and BSA (stock 100 µM, final concentration 5 µM, buffer volume 90 µL). […]

AmpC [4] = target: T1, AmpC; experiment: LC-MS t-SIM detection of boronic acids incubated with AmpC; parameters: made in house; conditions: 24 h, 37 °C
Description: Given that boronic acids act as transition-state inhibitors by binding the catalytic serine of β-lactamases through a reversible covalent bond, we aimed to determine whether the in situ click chemistry reaction products were quantitatively detected during LC–MS analysis. Although boronic acids are reversible binders, their fast on–slow off behaviour raised concerns that triazole product formation might be underestimated due to covalent adducts forming with the protein target. To investigate this, compound 10a, warhead 3, and compounds 8 and 9 were incubated with AmpC (1:1 or 1:5 protein:compound ratio), and their detection was monitored over 24 h (Figure 10). […] The percentage of boronic acids detected was estimated using peak area measurements in the LC–MS-targeted SIM mode, with quantification being performed using calibration curves. The experiments were conducted at 37 °C in a 95:5 sodium phosphate 50 mM pH 7.0:DMSO mixture.
Figure 10 The % of detection of 10a (grey box), 3 (yellow box), 8 (green box), and 9 (blue box) over the course of the 24 h using the t-SIM method. Each cpd was tested in presence of 20% mol of AmpC or stoichiometric amount of AmpC. Each box includes 4 columns corresponding to % boronic acid detected at a certain time point (0, 8, 16, and 24 h).

OXA-48 = OXA-48 (Klebsiella pneumoniae, UniProt Q6XEC0); experiment: KM of reporter substrate (Hanes-Woolf); format: biochemical; conditions: NaPi 50 mM pH 7.0
Protocol: (§3) The β-lactamases used in the present study were from a Clinical Biochemistry Laboratory collection (Department of Biotechnological and Applied Clinical Sciences, University of L’Aquila, L’Aquila, Italy). All enzymes show a purity degree of higher than 95%. The concentration of each enzyme was determined by a Bradford assay.

NDM-1 = NDM-1 (Klebsiella pneumoniae, UniProt C7C422); conditions: read-out: KM substrate, HEPES 20 mM pH 7.0 + 20 µM Zn
Protocol: as §1

AmpC [5] = target: T1, AmpC; conditions: read-out: KM substrate; pH 7
Protocol: as §1

KPC-53 = KPC-53 (Klebsiella pneumoniae, UniProt Q9F663, DUP166-167/H272Y); conditions: read-out: KM substrate, NaPi 50 mM pH 7.0
Protocol: as §3

SHV-12 = SHV-12 (Klebsiella pneumoniae, UniProt P0AD64, E235K/G234S/L31Q); conditions: read-out: KM substrate, NaPi 50 mM pH 7.0
Protocol: as §3

KPC-2 = target: T2, KPC-2 (Klebsiella pneumoniae, UniProt Q9F663); parameters: method as in PMID 26102369, PMID 34970229, PMID 37358467, PMID 26729491; conditions: ref [17],[19],[35],[36]; cited from earlier work
T2 construct: made in house

ADC-7 = target: ADC-7; parameters: method as in PMID 26102369, PMID 34970229, PMID 37358467, PMID 26729491; conditions: ref [17],[19],[35],[36]; cited from earlier work

T1 sequence (P00811 20-377): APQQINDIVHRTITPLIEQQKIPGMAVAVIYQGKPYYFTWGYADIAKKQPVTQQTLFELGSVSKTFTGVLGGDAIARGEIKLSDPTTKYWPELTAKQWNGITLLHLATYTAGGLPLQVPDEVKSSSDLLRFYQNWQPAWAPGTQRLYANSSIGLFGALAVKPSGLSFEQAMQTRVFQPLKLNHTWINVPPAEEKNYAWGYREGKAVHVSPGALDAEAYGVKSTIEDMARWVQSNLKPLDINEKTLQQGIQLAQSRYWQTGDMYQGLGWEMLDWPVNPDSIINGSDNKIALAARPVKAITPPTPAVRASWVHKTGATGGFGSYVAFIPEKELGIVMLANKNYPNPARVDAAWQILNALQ

In the case of O=S(=O)(NCc1cnnn1Cc1cccc(B(O)O)c1)C1CCCCC1 [10a], the Ki (AmpC [1]) is reported as 140 nM, the “AC (amplification coefficient)” value (AmpC [2]) is reported as 5-6 and the “AC 10/10a” value (AmpC [3]) is reported as 1-2. For the same compound, the “% boronic acid detected (remaining)” value (AmpC [4]; 20 mol% AmpC, sodium phosphate pH 7.0:DMSO 95:5) was 83% and the “boronic acid level detected” value (AmpC [4]; stoichiometric AmpC) was “remained stable”.

Compound C[C@@H](O)[C@H]1C(=O)N2C(C(=O)O)=C(SCCN=CN)C[C@H]12 [IMI, Imipenem] has a Km (OXA-48) of 13 ± 1 µM.

Work on C[C@@H](O)[C@H]1C(=O)N2C(C(=O)O)=C(S[C@@H]3CN[C@H](C(=O)N(C)C)C3)[C@H](C)[C@H]12 [MPM, Meropenem] yielded a Km (NDM-1) of 80 ± 1 µM.

Compound O=C(Cc1cccs1)N[C@@H]1C(=O)N2C(C(=O)O)=C(/C=C/c3ccc([N+](=O)[O-])cc3[N+](=O)[O-])CS[C@H]12 [NCF, Nitrocefin] has a Km (AmpC [5]) of 118 ± 2 µM, a Km (KPC-53) of 106 ± 2 µM and a Km (SHV-12) of 50 ± 3 µM.

In the case of O=C(Cc1cccs1)NC(Cn1cc(C(=O)O)nn1)B(O)O (stereo not drawn) [S02030], the IC50 (KPC-2) is listed as 80 nM and the Ki (ADC-7) is listed as 45 nM.
